Consider eleven compounds from PMC9442423, “Extracellular loop 2 of G protein–coupled olfactory receptors is critical for odorant recognition” (The Journal of Biological Chemistry, 2022).

Molecules are shown by their SMILES.

The first experiment has as its target T1, mOR256-3 (Mus musculus, UniProt Q0VEF0).
T1 construct: gene Olfr124; full-length receptor from Dr H. Matsunami, expressed in Hana3A cells; surface detected by antirhodopsin antibody
T1 sequence (Q0VEF0 1-315): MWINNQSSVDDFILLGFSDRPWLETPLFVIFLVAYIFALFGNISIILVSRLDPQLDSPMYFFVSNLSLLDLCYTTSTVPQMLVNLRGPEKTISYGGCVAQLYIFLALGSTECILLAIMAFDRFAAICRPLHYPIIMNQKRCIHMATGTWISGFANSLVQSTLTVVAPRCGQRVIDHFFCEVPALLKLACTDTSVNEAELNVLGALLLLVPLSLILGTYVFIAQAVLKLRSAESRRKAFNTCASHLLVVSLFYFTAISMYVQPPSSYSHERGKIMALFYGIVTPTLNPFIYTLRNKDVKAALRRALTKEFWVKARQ
Kind of experiment: CRE-luciferase cAMP reporter in Hana3A cells, dose-response fit. Type of experiment: cell-based. To be noted: agonist; 4 h, 37 °C, 5% CO2.
Turning to `CCCCCCCCO` [1-octanol], the EC50 entry is on record as “Ten odorants activated mOR256-3 in a dose-dependent manner”.
For `CCCCCC(C)=O` [2-heptanone], the EC50 result is recorded as “Ten odorants activated mOR256-3 in a dose-dependent manner”.
Same read-out and setting: as for `C=C(C)[C@@H]1CC=C(C)C(=O)C1` [R-carvone], the entry is “Ten odorants activated mOR256-3 in a dose-dependent manner”; as for `C=CCOC(=O)Cc1ccccc1` [allyl phenylacetate], “Ten odorants activated mOR256-3 in a dose-dependent manner”; as for `CC(=O)OCc1ccccc1` [benzyl acetate], “Ten odorants activated mOR256-3 in a dose-dependent manner”.
On the same count and under the same terms, with `O=c1ccc2ccccc2o1` [coumarin] the entry was “Ten odorants activated mOR256-3 in a dose-dependent manner”; with `CC(C)=CCC/C(C)=C/CO` [geraniol], “Ten odorants activated mOR256-3 in a dose-dependent manner”; with `CCCCCCCC=O` [octanal], “Ten odorants activated mOR256-3 in a dose-dependent manner”.
Same read-out and setting: as for `CCCCCCCC(=O)O` [octanoic acid], the entry is “Ten odorants activated mOR256-3 in a dose-dependent manner”.

The same experiment, now with this note: agonist; 4 h, 37 °C, 5% CO2; E/Z composition of citral not stated.
With `CC(C)=CCCC(C)=CC=O` [citral], the EC50 result is reported as “Ten odorants activated mOR256-3 in a dose-dependent manner”.

A further experiment deals with T1, mOR256-3. Kind of experiment: CRE-luciferase cAMP reporter in Hana3A cells, inhibition of odorant response. To be noted: antagonist against R-carvone, coumarin and geraniol. Type of experiment: cell-based.
For the compound `O=Cc1ccccc1` [benzaldehyde], the “CRE-luciferase cAMP reporter in Hana3A cells, inhibition of odorant response” value was “Benzaldehyde antagonized R-carvone, coumarin, and geraniol”.
